Where a SMILES comes first, the peptide text is derived from it. The star is where a group is joined. X1 = CC(C)CCC[C@@H](C)[C@H]1CC[C@H]2[C@@H]3CC=C4C[C@@H](OC(=O)C*)CC[C@]4(C)[C@H]3CC[C@]12C
What was measured:
HIV-1 (HXB2) = format: cell-based; details: read-out: IC50 antiviral activity
Excerpt: The antiviral activity of a peptide from the membrane-proximal external region (MPER) of gp41, which also includes the epitope of monoclonal antibody (MAb) 2F5, […] […] Accordingly, when peptide […] […] Moreover, the nature of the lipid was important, since a bis-Lys(N^ε-Palmitoyl) group was ineffective. Details of the assay used can be found in Joyce et al, J. Biol Chem., 2002, 277, 45811-45820.

HIV-HXB2 [1] = system: HIV-HXB2
HIV-HXB2 [2] = assay: pre-incubation of peptide with P4-2/R5 cells with/without wash, then HIV-HXB2 infection; format: cell-based, HIV-1; details: with wash versus no wash
Method: After 48 h, the antiviral activities of the residual peptides that survive the washing steps were determined by measuring the f3-galactosidase activities within lysed cells as described above.

multiple HIV-1 isolates = assay: single-cycle infectivity assay across the panel of viral strains; details: variety of viral strains
Method: HIV-1 Infectivity Assay (31). P4-2/R5 cells (HeLa cells expressing endogenous CXCR4 and stably transfected to express CD4 and CCR5 which also contain an integrated β-galactosidase reporter gene under control of an HIV LTR promoter) maintained in phenol red-free Dulbecco's modified Eagle's medium, 10% fetal bovine serum, 1% penicillin/streptomycin were seeded in 96-well plates at 2.5×10^3 cells/well and infected the following day with the HXB2 strain (and a variety of other strains in some cases) of HIV-1 (Advanced Biotechnology Inc., Bethesda, Md.) in the presence of titrations of the test inhibitory peptides at 37° C. After 48 h incubation with both virus and inhibitory peptides, cells were lysed and β-galactosidase was detected using Gal Screen™ chemiluminescent substrate (Applied Biosystems, Foster City, Calif.) according to the manufacturer's instructions. Data were obtained using a Dynex luminometer and IC50 values were calculated by KaleidaGraph.

[3] = pharmacokinetics after intraperitoneal injection into the mouse; format: in vivo; details: ip
Excerpt: Effect of lipid derivatization on the pharmacokinetic properties of C34-chol. In addition to providing improved antiviral potency, derivatization with cholesterol also extends the half-life of the peptide in vivo.

CC(=O)N[C@@H](CCC(=O)O)C(=O)N[C@@H](CC(C)C)C(=O)N[C@@H](CC(C)C)C(=O)N[C@@H](CCC(=O)O)C(=O)N[C@@H](CC(C)C)C(=O)N[C@@H](CC(=O)O)C(=O)N[C@@H](CCCCN)C(=O)N[C@@H](Cc1c[nH]c2ccccc12)C(=O)N[C@@H](C)C(=O)N[C@@H](CO)C(=O)N[C@@H](CC(C)C)C(=O)N[C@@H](Cc1c[nH]c2ccccc12)C(=O)N[C@@H](CSCC(=O)O[C@H]1CC[C@@]2(C)C(=CC[C@H]3[C@@H]4CC[C@H]([C@H](C)CCCC(C)C)[C@@]4(C)CC[C@@H]32)C1)C(N)=O (Ac-ELLELDKWASLWC(X1)-NH2)
IC50 (HIV-1 (HXB2)): 5850 nM

CC[C@H](C)[C@H](NC(=O)[C@H](CC(C)C)NC(=O)[C@H](CO)NC(=O)[C@H](Cc1c[nH]cn1)NC(=O)[C@@H](NC(=O)[C@H](CC(C)C)NC(=O)[C@H](CO)NC(=O)[C@@H](NC(=O)[C@H](Cc1ccc(O)cc1)NC(=O)[C@H](CC(N)=O)NC(=O)[C@H](CC(N)=O)NC(=O)[C@@H](NC(=O)[C@H](CCC(=O)O)NC(=O)[C@H](CCCNC(=N)N)NC(=O)[C@H](CC(=O)O)NC(=O)[C@H](Cc1c[nH]c2ccccc12)NC(=O)[C@H](CCC(=O)O)NC(=O)[C@H](CCSC)NC(=O)[C@H](Cc1c[nH]c2ccccc12)NC(=O)CNC(=O)[C@H](CO)NC(=O)CNC(=O)[C@H](CSCC(=O)O[C@H]1CC[C@@]2(C)C(=CC[C@H]3[C@@H]4CC[C@H]([C@H](C)CCCC(C)C)[C@@]4(C)CC[C@@H]32)C1)NC(C)=O)[C@@H](C)CC)[C@@H](C)O)[C@@H](C)CC)C(=O)N[C@@H](CCC(=O)O)C(=O)N[C@@H](CCC(=O)O)C(=O)N[C@@H](CO)C(=O)N[C@@H](CCC(N)=O)C(=O)N[C@@H](CC(N)=O)C(=O)N[C@@H](CCC(N)=O)C(=O)N[C@@H](CCC(N)=O)C(=O)N[C@@H](CCC(=O)O)C(=O)N[C@@H](CCCCN)C(=O)N[C@@H](CC(N)=O)C(=O)N[C@@H](CCC(=O)O)C(=O)N[C@@H](CCC(N)=O)C(=O)N[C@@H](CCC(=O)O)C(=O)N[C@@H](CC(C)C)C(=O)N[C@@H](CC(C)C)C(N)=O [Chol-C34]
decrease of antiviral activity compared to underivatized C34 (HIV-HXB2 [1]; cholesterol at the N-terminus): 50 fold

CC[C@H](C)[C@H](NC(=O)[C@H](CC(C)C)NC(=O)[C@H](CO)NC(=O)[C@H](Cc1c[nH]cn1)NC(=O)[C@@H](NC(=O)[C@H](CC(C)C)NC(=O)[C@H](CO)NC(=O)[C@@H](NC(=O)[C@H](Cc1ccc(O)cc1)NC(=O)[C@H](CC(N)=O)NC(=O)[C@H](CC(N)=O)NC(=O)[C@@H](NC(=O)[C@H](CCC(=O)O)NC(=O)[C@H](CCCNC(=N)N)NC(=O)[C@H](CC(=O)O)NC(=O)[C@H](Cc1c[nH]c2ccccc12)NC(=O)[C@H](CCC(=O)O)NC(=O)[C@H](CCSC)NC(=O)[C@H](Cc1c[nH]c2ccccc12)NC(C)=O)[C@@H](C)CC)[C@@H](C)O)[C@@H](C)CC)C(=O)N[C@@H](CCC(=O)O)C(=O)N[C@@H](CCC(=O)O)C(=O)N[C@@H](CO)C(=O)N[C@@H](CCC(N)=O)C(=O)N[C@@H](CC(N)=O)C(=O)N[C@@H](CCC(N)=O)C(=O)N[C@@H](CCC(N)=O)C(=O)N[C@@H](CCC(=O)O)C(=O)N[C@@H](CCCCN)C(=O)N[C@@H](CC(N)=O)C(=O)N[C@@H](CCC(=O)O)C(=O)N[C@@H](CCC(N)=O)C(=O)N[C@@H](CCC(=O)O)C(=O)N[C@@H](CC(C)C)C(=O)N[C@@H](CC(C)C)C(=O)NCC(=O)N[C@@H](CO)C(=O)NCC(=O)N[C@@H](CSCC(=O)O[C@H]1CC[C@@]2(C)C(=CC[C@H]3[C@@H]4CC[C@H]([C@H](C)CCCC(C)C)[C@@]4(C)CC[C@@H]32)C1)C(N)=O [Peptide C34-Chol]
IC50 fold change (HIV-HXB2 [2]): 7 fold | breadth of antiviral response (multiple HIV-1 isolates): comparable IC50 in all strains | potency relative to underivatized or cys-alkylated C34 across the whole panel (multiple HIV-1 isolates): ~50 fold | plasma concentration at 24 h as multiple of the measured IC50 ([3]; […], 24 h, versus IC50 7 pM): > 500 fold | AUC(0-t) ([3]; plasma, 3.5 mg/kg): 11.5 µM·h | Cmax ([3]; plasma, 3.5 mg/kg): 3100 nM | Tmax ([3]; plasma, 3.5 mg/kg): 4 h | CL/F ([3]; plasma, 3.5 mg/kg, read-out: CI/F): 0.6 mL/min/kg | level at time molar at 24 h ([3]; plasma, intraperitoneal, 3.5 mg/kg, 24 h, read-out: plasma concentration still detectable after 24 h): ~60 nM | increase of antiviral potency over C34 and C34-Aceta (HIV-HXB2 [1]): 50 fold | potency relative to enfuvirtide/FUZEON (HIV-HXB2 [1]): ~100 fold

CCCCCCCCCCCCCCCC(=O)NCCCC[C@H](NC(=O)CNC(=O)[C@H](CO)NC(=O)CNC(=O)[C@H](CC(C)C)NC(=O)[C@H](CC(C)C)NC(=O)[C@H](CCC(=O)O)NC(=O)[C@H](CCC(N)=O)NC(=O)[C@H](CCC(=O)O)NC(=O)[C@H](CC(N)=O)NC(=O)[C@H](CCCCN)NC(=O)[C@H](CCC(=O)O)NC(=O)[C@H](CCC(N)=O)NC(=O)[C@H](CCC(N)=O)NC(=O)[C@H](CC(N)=O)NC(=O)[C@H](CCC(N)=O)NC(=O)[C@H](CO)NC(=O)[C@H](CCC(=O)O)NC(=O)[C@H](CCC(=O)O)NC(=O)[C@@H](NC(=O)[C@H](CC(C)C)NC(=O)[C@H](CO)NC(=O)[C@H](Cc1c[nH]cn1)NC(=O)[C@@H](NC(=O)[C@H](CC(C)C)NC(=O)[C@H](CO)NC(=O)[C@@H](NC(=O)[C@H](Cc1ccc(O)cc1)NC(=O)[C@H](CC(N)=O)NC(=O)[C@H](CC(N)=O)NC(=O)[C@@H](NC(=O)[C@H](CCC(=O)O)NC(=O)[C@H](CCCNC(=N)N)NC(=O)[C@H](CC(=O)O)NC(=O)[C@H](Cc1c[nH]c2ccccc12)NC(=O)[C@H](CCC(=O)O)NC(=O)[C@H](CCSC)NC(=O)[C@H](Cc1c[nH]c2ccccc12)NC(C)=O)[C@@H](C)CC)[C@@H](C)O)[C@@H](C)CC)[C@@H](C)CC)C(N)=O [Peptide C34-Pam]
antiviral activity relative to underivatized C34 (HIV-HXB2 [1]): comparable activity to underivatized C34

enfuvirtide
IC50 (HIV-HXB2 [1]; read-out: IC50 viral infectivity, mean ± SEM of three independent experiments (Table 2)): 0.692 ± 0.245 nM

— patent US8629101B2, “Cholesterol derivatives of inhibitors of viral fusion” (priority 2007, dated 2014)
